Assays:
Assay in all cases: relative viability (nuclei count vs DMSO), 5 days (fraction); higher = more cells survive
[1] = compound: Cc1ccc(NC(=O)c2ccc(CN3CCN(C)CC3)cc2)cc1Nc1nc(-c2cccnc2)cs1 [Masitinib] + Cc1nc(Nc2ncc(C(=O)Nc3c(C)cccc3Cl)s2)cc(N2CCN(CCO)CC2)n1 [Dasatinib] (partner 0.075 µM)
Summary of the method: (§1)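 After 5 days of treatment, lung cancer cells in 1536-well plates were fixed and stained in a single step (final 0.05% Triton X-100, 1% formaldehyde, 1 ug/ml Hoechst) and their nuclei counted on 4× images. Treatment had been applied by pin tool the day after seeding as one drug alone or as a fixed anchor-drug dose with five library-drug doses (not always all listed) in √10 steps. Relative viability is the nuclei count of treated wells divided by that of vehicle wells, and values are medians of duplicate plates.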

[2] = compound: CC1=CC(=CC=C1)NC2=NC(=CS2)C3=CC=NC=C3 + C[C@]1(O)C[C@@H](c2nc(-c3ccc4ccc(-c5ccccc5)nc4c3)c3c(N)nccn32)C1 [Linsitinib] (partner 1 µM)
Summary of the method: as §1

[3] = compound: CC1=CC(=CC=C1)NC2=NC(=CS2)C3=CC=NC=C3 + CC(C)C[C@H](NC(=O)[C@H](Cc1ccccc1)NC(=O)c1cnccn1)B(O)O [Bortezomib] (partner 0.002 µM)
Summary of the method: as §1

[4] = compound: Cc1ccc(NC(=O)c2ccc(CN3CCN(C)CC3)cc2)cc1Nc1nc(-c2cccnc2)cs1 [Masitinib] + CC(=O)c1c(C)c2cnc(Nc3ccc(N4CCNCC4)cn3)nc2n(C2CCCC2)c1=O [Palbociclib] (partner 0.5 µM)
Summary of the method: as §1

Cell Line | relative viability ([1]; first compound 0.01 µM) | relative viability ([1]; first compound 0.03162 µM) | relative viability ([1]; first compound 0.1 µM) | relative viability ([1]; first compound 0.3162 µM) | relative viability ([1]; first compound 1 µM) | relative viability ([2]; first compound 0.08 µM) | relative viability ([2]; first compound 0.253 µM) | relative viability ([2]; first compound 0.8 µM) | relative viability ([2]; first compound 2.53 µM) | relative viability ([2]; first compound 8 µM) | relative viability ([3]; first compound 0.08 µM) | relative viability ([3]; first compound 0.253 µM) | relative viability ([3]; first compound 0.8 µM) | relative viability ([3]; first compound 2.53 µM) | relative viability ([3]; first compound 8 µM) | relative viability ([4]; first compound 0.01 µM) | relative viability ([4]; first compound 0.03162 µM) | relative viability ([4]; first compound 0.1 µM) | relative viability ([4]; first compound 0.3162 µM) | relative viability ([4]; first compound 1 µM)
201T | 0.53 | 0.594 | 0.521 | 0.42 | 0.491 | 1.03 | 1.05 | 1 | 0.817 | 0.852 | 1.05 | 1.06 | 1.08 | 0.888 | 0.919 | 0.326 | 0.386 | 0.364 | 0.369 | 0.375
A549 |  |  |  |  |  | 0.486 | 0.684 | 0.619 | 0.532 | 0.562 |  |  |  |  |  |  |  |  |  | 
A-427 |  | 0.726 |  | 0.802 | 0.695 | 1.16 | 1.03 | 1.09 |  | 1.12 | 0.84 | 1.03 | 0.895 |  | 0.84 | 0.453 | 0.557 | 0.548 | 0.525 | 0.488
ABC-1 | 0.58 | 0.588 | 0.629 | 0.428 | 0.521 | 0.758 | 0.708 | 0.584 | 0.642 | 0.709 | 0.316 | 0.265 | 0.328 | 0.315 | 0.32 | 0.699 | 0.855 | 0.784 | 0.598 | 0.661
BEN | 0.341 |  | 0.271 | 0.308 | 0.281 | 0.881 | 0.925 | 0.89 | 0.777 | 0.813 | 0.816 | 0.618 | 0.546 | 0.697 | 0.794 | 0.42 | 0.431 | 0.51 | 0.513 | 0.46
CAL-12T | 0.452 | 0.381 | 0.34 | 0.306 | 0.374 | 0.766 | 0.801 | 0.747 | 0.847 | 0.847 | 0.757 |  | 1.01 | 0.719 | 0.954 | 0.445 | 0.333 | 0.455 | 0.305 | 0.502
COR-L23 | 0.411 | 0.419 | 0.531 | 0.437 | 0.543 | 0.821 | 0.89 | 0.62 | 0.892 | 0.843 | 1.01 | 0.913 | 0.779 | 0.924 | 0.595 | 0.296 | 0.257 | 0.298 | 0.329 | 0.279
COR-L 105 | 0.37 | 0.338 | 0.305 | 0.288 | 0.286 | 0.822 | 0.738 | 0.803 | 0.808 | 0.653 | 0.7 | 0.804 | 0.734 | 0.563 | 0.456 | 0.422 | 0.394 | 0.435 | 0.382 | 0.348
Calu-6 |  |  |  |  |  | 0.765 | 0.934 | 0.871 | 0.879 | 0.756 | 0.951 | 0.838 | 0.88 | 0.94 | 0.926 |  |  |  |  | 
ChaGo-K-1 | 0.577 | 0.575 | 0.54 | 0.546 | 0.629 |  |  |  |  |  | 0.866 | 0.775 | 1.06 | 0.579 | 0.812 | 0.954 | 0.952 | 0.966 | 0.972 | 0.897
EBC-1 |  |  |  |  |  | 0.621 | 0.698 | 0.757 | 0.686 | 0.786 | 0.434 | 0.463 | 0.602 | 0.517 | 0.282 |  |  |  |  | 
EKVX | 0.557 | 0.387 | 0.535 | 0.464 | 0.41 | 0.914 | 0.778 | 0.882 | 0.882 | 0.705 | 1.01 | 0.994 | 0.747 | 0.957 | 0.696 | 0.35 | 0.333 | 0.343 |  | 0.295
EMC-BAC-2 | 0.35 | 0.33 | 0.397 | 0.314 | 0.296 | 0.712 | 0.817 | 0.781 | 0.802 | 0.718 | 0.982 | 1.04 | 1.01 | 0.99 | 0.927 | 0.434 | 0.473 | 0.509 | 0.524 | 0.51
EPLC-272H | 0.509 | 0.416 | 0.337 | 0.373 | 0.242 | 1.08 |  | 1.05 |  | 1.19 | 1.03 |  | 0.73 |  | 0.352 | 0.299 | 0.331 | 0.327 | 0.295 | 0.329
H3255 | 0.335 | 0.363 | 0.336 | 0.349 | 0.339 | 0.95 | 0.951 | 0.966 | 0.795 | 0.956 | 0.664 | 0.624 | 0.886 | 0.586 | 0.604 | 0.294 | 0.35 | 0.299 | 0.321 | 0.326
HARA |  | 0.289 | 0.283 | 0.152 | 0.258 | 0.919 | 0.877 | 0.735 | 0.712 | 0.789 | 1.09 | 1.16 | 1.1 | 1.03 | 0.936 | 0.271 |  | 0.244 | 0.254 | 0.254
HCC-15 | 0.516 | 0.617 | 0.68 | 0.512 | 0.59 | 0.872 | 0.859 | 0.828 | 0.791 | 0.754 | 0.963 | 1.03 | 0.973 | 1.02 | 0.753 | 0.658 | 0.74 | 0.799 | 0.739 | 0.77
HCC-44 |  |  |  |  |  | 0.59 | 0.497 | 0.486 | 0.539 | 0.662 | 0.75 | 0.702 | 0.71 | 0.707 | 0.809 | 0.973 | 0.95 | 0.985 | 0.863 | 0.962
HCC-78 | 0.468 | 0.312 | 0.392 | 0.468 | 0.366 | 0.398 | 0.506 | 0.542 | 0.423 | 0.63 | 0.409 | 0.473 | 0.469 | 0.414 | 0.274 | 0.436 | 0.451 | 0.497 | 0.488 | 0.534

— the supplement of paper PMC10307832
